Assay results as given in US10058587B2, “Peptide composition for cancer treatment by inhibiting TRPV6 calcium channel activity” (priority 2008, dated 2018).
Entries after “also recorded” stand apart in the source; their conditions may differ. Where no end group is shown, it is not given here.

What was measured:
[1] = tested on: CaOV3 ovarian cancer cell line; assay: Induction of apoptosis (APO-ONE caspase 3/7) and cell viability (CellTiter Blue); type: cell-based, human; parameters: key to Decline in cell viability: decreased (+); or not (−)
Description: CAOV-3 was cultured in Dulbecco's Modified Eagle Medium (4.5 g/L glucose) with 4 mM L-glutamine, 1.5 g/L sodium bicarbonate and 10% (v/v) fetal bovine serum.
The levels of apoptotic induction and cell viability were determined by multiplexing the measurements for single samples. CellTiter Blue and APO-ONE assay systems from Promega allows the determination of cell viability correlated to cell number, and induction of apoptosis. This protocol uses a fluorgenic peptide that contains a peptide recognition-sequence for caspase 3 and caspase 7, […] proteolytic enzymes of the apoptosis cascade. The CellTiter Blue reagent was added to wells in a 96-well plate containing cells under test, immediately after addition of peptide solution or vehicle. About 5000 cells were plated into the wells the day before. At the chosen time (Day 1, Day 2 etc.) the fluorescence was measured at 590 nm (emission) after excitation at 560 nm. The caspase 3/7 activity was measured (485 nm Ex/527 nm Em) in the same wells after adding 120 uL of the Apo-ONE reagent, freeze fracturing at −80° C. for 1 hr, and incubating for 1 hr at room temperature.
For this work, the concentrations of SorC13 and SorC27 used were 0 uM, 1 uM, 10 uM and 100 uM. The experiments extended over a 5 to 7 day period. All measurements were done in quadruplicate with both a blank (no cells) and control (vehicle, no peptide) used to correct the test measurements. The time-response data, and the dose-response data were plotted as means±standard error of the mean. Any statistical comparisons were done with the Student's t-test or by ANOVA analysis over the dose course. The level of statistical significance was considered to be the 95% confidence interval (i.e., p≤0.05).
To compare the effect of the two SorC-peptides against the gold-standard treatment for ovarian cancers SorC13 or SorC27 was compared to treatment with a carboplatin and taxol (CAT) cocktail (10 uM Paclitaxel, 20 mM carboplatin) using the APO-ONE assay, which measures the combined activities of caspase 3 and caspase 7. […]

[2] = Physiological effects after i.v. injection into CD1 mice (blood pressure, heart rate, neurological/behavioral); type: in vivo
Description: After in vivo i.v. injection into CD1 mice, SorC13 caused a small spike (approximately 25%) in blood pressure in the first 15 min which disappeared by 1 hour.

[3] = Repeated dose toxicity study; type: in vivo, NOD/SCID mice
Description: In order to investigate repeated dose toxicity, SorC27 at 400 mg/kg formulated in saline was injected (i.p.) into NOD/SCID mice every day for 12 days. The animals were observed cage-side each day and examined at the end of the experimental period.

[4] = target: T1, human TRPV6b (Homo sapiens, UniProt Q9H1D0); assay: Whole-cell patch clamp of calcium store operated current (ISOC) through TRPV6 in transfected LnCaP cells; type: cell-based
T1 construct: expressed in transfected cells; host or cells: LnCaP (ATCC CRL-1740), human lymph node prostate cancer cells
T1 sequence (Q9H1D0 41-765 limits assumed): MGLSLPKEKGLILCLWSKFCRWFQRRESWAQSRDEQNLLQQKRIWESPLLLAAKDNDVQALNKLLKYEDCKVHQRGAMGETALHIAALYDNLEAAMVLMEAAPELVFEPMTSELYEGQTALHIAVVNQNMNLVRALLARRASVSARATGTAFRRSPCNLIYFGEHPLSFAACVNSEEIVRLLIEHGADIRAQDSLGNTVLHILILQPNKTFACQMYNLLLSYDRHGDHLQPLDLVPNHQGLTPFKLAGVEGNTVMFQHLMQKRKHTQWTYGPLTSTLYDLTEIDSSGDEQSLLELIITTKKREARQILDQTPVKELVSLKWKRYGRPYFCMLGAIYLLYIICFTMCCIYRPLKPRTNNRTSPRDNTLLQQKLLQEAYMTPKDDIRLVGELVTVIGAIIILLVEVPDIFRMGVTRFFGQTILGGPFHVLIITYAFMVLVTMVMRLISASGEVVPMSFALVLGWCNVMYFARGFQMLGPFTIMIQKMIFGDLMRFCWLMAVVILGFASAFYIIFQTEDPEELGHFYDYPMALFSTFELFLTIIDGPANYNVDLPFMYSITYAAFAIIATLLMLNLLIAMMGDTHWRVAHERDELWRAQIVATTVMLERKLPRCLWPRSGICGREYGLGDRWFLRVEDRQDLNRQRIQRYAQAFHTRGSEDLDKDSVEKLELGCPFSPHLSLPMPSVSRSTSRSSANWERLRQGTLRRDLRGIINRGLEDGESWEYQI
Description: An expression vector (pCAGS-IRES-hTRPV6b) (Bodding et al. 2003) containing the nucleotide code for human TRPV6b was transfected into and expressed by human lymph node prostate cancer (LnCaP, ATCC CRL-1740). Patch clamping with whole-cell current acquisition was used to measure the calcium current through this channel. Cells were treated and calcium store operated current (ISOC) was measured with either SorC13 (n=90) or SorC27 (n=30) in a closed-circuit perfusion for 3 min at each of cumulative concentrations of 0 (baseline), 100 nM, 500 nM 1 uM, 30 uM and 100 uM. Washout perfusion was done at 2 mL/min for 3 min. […] Further, both C-peptides are very strong inhibitors of calcium current through the TRPV6 channel with inhibition constants in the 100 nM range.

[5] = Storage stability of solid and aqueous solution; type: physicochemical
Description: Additionally, the peptides have greater shelf-life stability and solution stability due to the presence of fewer sensitive disulfide bonds (soricidin has 3 disulfide bonds). The peptides of the invention optionally have no disulfide bonds. An absence of disulfide bonds provides a very long shelflife during storage under minimal refrigeration or at room temperature as a solid. Additionally when the peptides of the invention with no disulfide bonds are dissolved in water, cleavage of disulfide bonds cannot occur. […] The formation of inter-peptide S—S bonds also results in precipitation of soricidin. The peptides of the invention, such as SorC13 and SorC27, are typically stable in aqueous solution at 8° C. for at least 3 weeks with no change in purity as measured by HPLC.
“Very stable” in the above table means that there was no observable degradation of the solid peptides over 6 months. As a solution in sterile water, the peptides are typically stable for at least 3 weeks at 8° C. and at −20° C., are expected to be stable more than 1 year.

[6] = 400 mg/kg, daily i.p. injection for 12 days

| Sequence | apoptosis (treatment:control ratio) compared with CAT cocktail ([1]; CAT = 10 uM Paclitaxel, 20 mM carboplatin) | Apoptosis Index (1 = no effect) ([1]; Day5, SorC13 100 uM) | Decline in cell viability ([1]; Day5, SorC13 100 uM) | Physiol. effects in vivo (mice) @ 5 mg/kg ([2]; 5 mg/kg) | change in blood pressure or heart rate ([2]; i.v., 1 hour measurement period) | neurological/behavioral changes ([2]; i.v., over 72 hours) | toxicity of multiple dose ([3]; 400 mg/kg i.p. each day for 12 days) | Repeated dose in NOD/SCID mice: body weight [3, 6] | Repeated dose in NOD/SCID mice: toxic effects [3, 6] | IC50 [4] [nM] | Kd [4] [nM] | Stability in aqueous solution @ −20° C. [5] | Stability solid @ Room Temp. [5] | Stability solid @ −20° C. [5] |
| --- | --- | --- | --- | --- | --- | --- | --- | --- | --- | --- | --- | --- | --- | --- |
| KEFLHPSKVDLPR [SorC13, KEFLHPSKVDLPR] | produced earlier and more intense apoptosis cascade than the CAT cocktail | 2.7 | + |  |  |  |  |  |  |  |  |  |  |  |
| EGKLSSNDTEGGLCKEFLHPSKVDLPR [SorC27] |  |  |  | None observed over 72 hr | no change in blood pressure or heart rate | no also neurological/behavioral changes | no indication of toxicity; also recorded: no toxic effect, weight loss or change in organs on necropsy | No loss of body weight | no toxic effects noted | 140 | 140 | Very stable | Very stable | Very stable |
